Molecular target: T1, angiotensin II receptor (Bos taurus, UniProt P25104)
T1 construct: An A II receptor membrane fraction was prepared from bovine adrenal cortex; from tissue; host or cells: bovine adrenal cortex, receptor membrane fraction
T1 sequence (P25104 1-359): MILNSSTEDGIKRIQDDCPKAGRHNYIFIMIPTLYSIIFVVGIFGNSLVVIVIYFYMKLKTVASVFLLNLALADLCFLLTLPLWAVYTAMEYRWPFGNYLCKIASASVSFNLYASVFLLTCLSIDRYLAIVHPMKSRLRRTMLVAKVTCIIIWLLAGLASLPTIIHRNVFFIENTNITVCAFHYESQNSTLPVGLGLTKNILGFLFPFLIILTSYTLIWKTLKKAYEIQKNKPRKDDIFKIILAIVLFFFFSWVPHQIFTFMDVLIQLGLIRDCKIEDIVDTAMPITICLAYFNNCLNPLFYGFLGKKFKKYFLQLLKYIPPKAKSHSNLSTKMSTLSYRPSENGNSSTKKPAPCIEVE
Assay: Inhibition of binding of angiotensin II to angiotensin receptors (125I-angiotensin II binding, receptor membrane fraction from bovine adrenal cortex)
Details: 125I-A II, room temperature, 1 hour; for inhibition at 10 µM: 1 × 10^-5 (M); for inhibition at 1 µM: 1 × 10^-6 (M)
Experimental: Inhibition of binding of angiotensin II to angiotensin receptors
An experiment of inhibition of angiotensin II (A (II) receptor binding was conducted according to the modified Douglas et al's method [Endocrinology,102, 685-695 (1978)]. An A II receptor membrane fraction was prepared from bovine adrenal cortex.
the compound of the present invention (10^-6 -10^-5 M) and ^125 I-angiotensin II (^125 I-A II) (1.85 kBq/50 μl) were added to the receptor membrane fraction and incubated at room temperature for 1 hour. Bound and free ^125 I-A II's were separated through a filter (Whatman GF/B filter), and the radioactivity of ^125 I-A II bound to the receptor was measured.

| inhibition at 10 µM [%] | inhibition at 1 µM [%] | SMILES |
| --- | --- | --- |
| 92 | 75 | CCCCc1cc(C(=O)OCC)nn1Cc1ccc(-c2ccccc2-c2nn[nH]n2)cc1 [compound 1] |
| 95 | 80 | CCCCNC(=O)c1cc(CCCC)n(Cc2ccc(-c3ccccc3-c3nn[nH]n3)cc2)n1 [compound 2] |
| 94 | 81 | CCCCc1cc(C(=O)NC(C)(C)C)nn1Cc1ccc(-c2ccccc2-c2nn[nH]n2)cc1 [compound 3] |
| 98 | 93 | CCCCc1cc(C(=O)NC2CCCCC2)nn1Cc1ccc(-c2ccccc2-c2nn[nH]n2)cc1 [compound 5] |
| 95 | 83 | CCCCc1cc(C(=O)NCc2ccccc2)nn1Cc1ccc(-c2ccccc2-c2nn[nH]n2)cc1 [compound 6] |
| 97 | 91 | CCCCc1cc(C(=O)Nc2ccccc2)nn1Cc1ccc(-c2ccccc2-c2nn[nH]n2)cc1 [compound 7] |
| 95 | 86 | CCCCc1cc(C(=O)NC2Cc3ccccc3C2)nn1Cc1ccc(-c2ccccc2-c2nn[nH]n2)cc1 [compound 8] |
| 96 | 73 | CCCCc1cc(C(=O)NOCc2ccccc2)nn1Cc1ccc(-c2ccccc2-c2nn[nH]n2)cc1 [compound 9] |
| 97 | 85 | CCCCc1cc(C(=O)NCC)nn1Cc1ccc(-c2ccccc2-c2nn[nH]n2)cc1 [compound 12] |
| 99 | 85 | CCCCc1cc(C(=O)NCCC)nn1Cc1ccc(-c2ccccc2-c2nn[nH]n2)cc1 [compound 13] |
| 93 | 75 | CCCCc1cc(C(N)=O)nn1Cc1ccc(-c2ccccc2-c2nn[nH]n2)cc1 [compound 14] |
| 95 | 88 | CCCCc1cc(C(=O)NCCOC)nn1Cc1ccc(-c2ccccc2-c2nn[nH]n2)cc1 [compound 15] |
| 95 | 91 | CCCCc1cc(C(=O)NC(C)C)nn1Cc1ccc(-c2ccccc2-c2nn[nH]n2)cc1 [compound 16] |
| 98 | 91 | CCCCc1cc(C(=O)OC(C)C)nn1Cc1ccc(-c2ccccc2-c2nn[nH]n2)cc1 [compound 17] |
| 88 | 54 | CCCCCc1cc(C(=O)OCC)nn1Cc1ccc(-c2ccccc2-c2nn[nH]n2)cc1 [compound 18] |
| 90 | 62 | CCCc1cc(C(=O)OCC)nn1Cc1ccc(-c2ccccc2-c2nn[nH]n2)cc1 [compound 19] |
| 94 | 66 | CCCCc1cc(C(=O)OCC(F)(F)F)nn1Cc1ccc(-c2ccccc2-c2nn[nH]n2)cc1 [compound 20] |
| 90 | 61 | CCCCc1cc(C(=O)OC)nn1Cc1ccc(-c2ccccc2-c2nn[nH]n2)cc1 [compound 22] |
| 96 | 77 | CCCCc1cc(C(=O)N2CCCC2)nn1Cc1ccc(-c2ccccc2-c2nn[nH]n2)cc1 [compound 25] |
| 97 | 92 | CCCCc1cc(C(=O)N2CCOCC2)nn1Cc1ccc(-c2ccccc2-c2nn[nH]n2)cc1 [compound 27] |
| 89 | 38 | CCCCc1cc(C(=O)N2CCN(C(c3ccccc3)c3ccccc3)CC2)nn1Cc1ccc(-c2ccccc2-c2nn[nH]n2)cc1 [compound 31] |
| 88 | 32 | CCCCc1cc(C(=O)N2CCC(C(c3ccccc3)c3ccccc3)CC2)nn1Cc1ccc(-c2ccccc2-c2nn[nH]n2)cc1 [compound 32] |

From US5183899A, “Pyrazole derivative” (Takeda Chemical Industries, Ltd., priority 1989, dated 1993)
